# Experiments:
# CALB, RLE, and LPL = assay: PS20 loss and subvisible particles after digestion, summary across CALB, LPL and RLE; type: biochemical; conditions: 15% (w/v) HP-β-CD vs 0%; ≥2, ≥5, ≥10, ≥25 micron; HIAC
# Description: Subvisible particles were measured using a HIAC 9703 particle counter equipped with an HRDL-150 detector and a 1 mL syringe. Performance of the instrument was verified with NIST-traceable 2 μm Polystyrene bead standards at 3000 counts/mL before each measurement session. The HIAC instrument was configured to a 10 mL/min flow rate, 0.1 mL tare volume, and 0.4 mL sample volume. The samples were analyzed using 4 runs of 0.4 mL sips, with the first run of each sample was discarded to prevent measurement error due to sample carryover. Results were reported as the average values for 1.4, 2, 5, 10, 15, and 25, 50 μm analysis filter sizes.
# Polysorbate concentration was determined using reverse phase ultra-performance liquid chromatography using evaporative light scattering detection (RP-ELSD). Samples were analyzed using an Agilent 1100 series high performance liquid chromatography system (HPLC) fitted with a Waters Oasis MAX cartridge column (20×2.1 mm, 30 μm particle size). […] In order to quantitate the PS20 concentration, a standard curve was generated by injecting 20 μL of solutions containing between 0% w/v and 0.4% w/v PS20. For excipients which affected the migration time of PS20 through the column, PS20 standard curve solutions containing the relevant excipient were included in the analysis to facilitate accurate quantitation. […]
# Lipoprotein Lipase (LPL) = assay: Enzymatic degradation of PS20 by LPL, PS20 by RP-ELSD; type: biochemical, Burkholderia sp.; conditions: 15% w/v HP-β-CD; 0.02% PS20, pH 5.5; 70 μg/mL LPL, 5 hours, room temperature
# Description: (§1) Polysorbate concentration was determined using reverse phase ultra-performance liquid chromatography using evaporative light scattering detection (RP-ELSD). Samples were analyzed using an Agilent 1100 series high performance liquid chromatography system (HPLC) fitted with a Waters Oasis MAX cartridge column (20×2.1 mm, 30 μm particle size). The HPLC system was set up with a switching valve directing column flow-through to either waste or a Varian 380-LC evaporative light scattering detector set to 100° C. The mobile phases consisted of 2% formic acid in water (Pump A) and 2% formic acid in isopropanol (Pump B). […] In order to quantitate the PS20 concentration, a standard curve was generated by injecting 20 μL of solutions containing between 0% w/v and 0.4% w/v PS20. For excipients which affected the migration time of PS20 through the column, PS20 standard curve solutions containing the relevant excipient were included in the analysis to facilitate accurate quantitation.
# (§2) The effect of 15% HP-β-CD on the enzymatic degradation of PS20 was measured. […]
# (§3) PPL digestion was stopped by heat inactivation in an 85° C. water bath for 30 minutes. LPL and RLE digestion could not be stopped by heat inactivation, so the samples were analyzed immediately for PS20 content. […]
# [1] = test system: Rabbit Liver Esterase (RLE); assay: Enzymatic degradation of PS20 by RLE, PS20 by RP-ELSD; type: biochemical; conditions: 15% w/v HP-β-CD; 0.02% PS20, pH 5.5; 15 μg/mL RLE, 5 hours, room temperature
# Description: as §1, §2, §3
substance,measurement,setting,value
2-hydroxypropyl-β-cyclodextrin [HP-β-CD],subvisible particulates (SVP/mL) after enzymatic degradation,"CALB, RLE, and LPL",fewer SVP/mL
same,Polysorbate 20 (Relative %),Lipoprotein Lipase (LPL),77.5%
same,Polysorbate 20 (Relative %),[1],62.7%

# Source: patent US10933141B2, “Formulations with reduced degradation of polysorbate” (Genentech, Inc., priority 2015, dated 2021)
